Experiment in series [1]: not given
This is another data set of the same source.

Experiment in series [2]: not given
This is another data set of the same source.

Experiment in series [3]: not given
The source holds these as a separate data set.

Experiment in series [4]: not given
This is another data set of the same source.

SMILES strings stand for the structures.

In a flash point compilation (Sun et al. 2020) one finds flash point data, which are given here for 68 molecules.

For `CC(C)(CO)[C@@H](O)C(=O)NCCCO`, the flash point amounted to 113.00 °C.

Take `CC(C)C(=O)OCC(C)(C)C(O)C(C)C` (configuration not stated): the flash point came to 120.00 °C.

As for `CO[C@H]1CO[C@H]2[C@@H]1OC[C@H]2OC`, the flash point came out at 103.00 °C.

Take `O=C(OCC1CCC(COC(=O)c2ccccc2)CC1)c1ccccc1` (configuration not stated): the flash point worked out at 161.00 °C.

With `C1=CCCC=C1` [1,3-cyclohexadiene], the flash point in series [1] was -16 °C; in series [2], 26 °C.

Molecule `OC(CBr)CCBr` (configuration not stated) [1,4-dibromobutan-2-ol] displayed a flash point of 113.00 °C.

In the case of `CC(O)CNCC(C)O` (configuration not stated) [1-(2-hydroxypropylamino)propan-2-ol], the flash point was 126.00 °C.

For `O=C1CCCN1C1CCCCC1` [1-cyclohexyl-2-pyrrolidinone], the flash point was found to be 145.00 °C.

On to `C=CCCCCCCCCCCCCCCC` [1-heptadecene], for which the flash point in series [3] came out at 141 °C; in series [1], 135 °C.

For `C=CCCCCCCCCCCC` [1-tridecene], the flash point in series [3] is 92 °C; in series [1] it was 79 °C; in series [2], 80 °C.

`OCC(F)(F)F` [2,2,2-trifluoroethanol] came in with a flash point of 29.00 °C.

For the molecule `CC(C)C(C)(C)C` [2,2,3-trimethylbutane], the flash point in series [1] was -24 °C; in series [2], -6 °C.

Regarding `CC(C)CC(C)(C)CO` [2,2,4-trimethylpentan-1-ol], the flash point is 60.00 °C.

`CCCC(C)C(C)C` (configuration not stated) [2,3-dimethylhexane]: the flash point in series [1] was 5 °C; in series [2], -3 °C.

For `CC(C)(O)C#CC(C)(C)O` [2,5-dimethylhex-3-yne-2,5-diol], the flash point came out at 73.90 °C.

Turning to `NCCOCCO` [2-(2-aminoethoxy)ethanol], the flash point was determined as 127.00 °C.

On to `C=CCOCC1CO1` (configuration not stated) [2-(allyloxymethyl)oxirane], for which the flash point was 48.00 °C.

Molecule `CC(O)COC(C)COC(C)CO` (configuration not stated) [2-[2-(2-hydroxypropoxy)propoxy]propan-1-ol] came in with a flash point of 143.33 °C.

Take `COC(C)(C)C` [2-methoxy-2-methylpropane]: the flash point was -34.44 °C.

Take `CCCCCC(C)C` [2-methylheptane]: the flash point in series [4] was 4.00 °C; in series [1], 5 °C.

For `C=C(C)C` [2-methylprop-1-ene], the flash point was -116.00 °C.

For the molecule `CC#CCCCCC` [2-octyne], the flash point is 24 °C in series [3], 18 °C in series [1] and 28 °C in series [2].

`N#Cc1ccccn1` [2-pyridinecarbonitrile] showed a flash point of 89.00 °C.

For `C=CC(C)(C)C` [3,3-dimethyl-1-butene], the flash point in series [1] is -29 °C; in series [2], -28 °C.

In the case of `CC1CNCC(C)C1` (configuration not stated) [3,5-dimethylpiperidine], the flash point was found to be 21.50 °C.

Molecule `CCC(C)(O)C#CC(C)(O)CC` (configuration not stated) [3,6-dimethyloct-4-yne-3,6-diol] had a flash point of 109.00 °C.

For `OCCCOCCCO` [3-(3-hydroxypropoxy)propan-1-ol], the flash point is 123.89 °C.

Take `Brc1cccnc1` [3-bromopyridine]: the flash point amounted to 51.00 °C.

Consider `N#Cc1cccnc1` [3-pyridinecarbonitrile], for which the flash point was 84.00 °C.

Take `C=CC=C(C)C` [4-methyl-1,3-pentadiene]: the flash point in series [1] is -18 °C; in series [2], -34 °C.

`C#CCC(C)C` [4-methylpent-1-yne]: the flash point is -4.00 °C.

`N#Cc1ccncc1` [4-pyridinecarbonitrile] gave a flash point of 88.00 °C.

`Cc1cccc(N)n1` [6-methyl-2-pyridinamine] came in with a flash point of 103.00 °C.

In turn, `OC[C@@H](O)[C@@H](O)[C@H](O)[C@@H](O)CO` [(2R,3R,4R,5S)-hexane-1,2,3,4,5,6-hexol] registered a flash point of 148.90 °C.

`OC/C=C/CO` [(E)-but-2-ene-1,4-diol] registered a flash point of 128.00 °C.

For `C/C=C\CC` [(Z)-pent-2-ene], the flash point was -18.00 °C.

Molecule `CCN(CC)C(C)=O` [N,N-diethylacetamide] came in with a flash point of 70.00 °C.

In turn, `CCN(C=O)CC` [N,N-diethylformamide] displayed a flash point of 60.00 °C.

`C1CCC(NC2CCCCC2)CC1` [N-cyclohexylcyclohexanamine]: the flash point turned out to be 103.00 °C.

For `CC=CC` [but-2-ene], the flash point was -73.30 °C.

`OCC#CCO` [but-2-yne-1,4-diol] came in with a flash point of 152.00 °C.

For `ClCOCCl` [chloro-(chloromethoxy)methane], the flash point was 19.00 °C.

Turning to `C[C@@H]1CCCC[C@@H]1C` [cis-1,2-dimethylcyclohexane], the flash point in series [1] stood at 11 °C; in series [2] it was 12 °C.

For the molecule `C/C=C\CCC` [cis-2-hexene], in series [1], the flash point is -26 °C.

With `C/C=C\CC` [cis-2-pentene], the flash point in series [1] was -47 °C.

For the molecule `CC/C=C\CC` [cis-3-hexene], the flash point in series [1] is -28 °C.

In series [1], `CC/C=C\CCCC` [cis-3-octene] had a flash point of 17 °C.

For the molecule `CCC/C=C\CCC` [cis-4-octene], in series [1], the flash point was determined as 17 °C.

In series [1], `C1=CCCCCCC1` [cyclooctene] came in with a flash point of 25 °C.

Regarding `C1=CCC=C1` [cyclopenta-1,3-diene], the flash point amounted to 0.00 °C.

Take `NCCN` [ethane-1,2-diamine]: the flash point stood at 57.20 °C.

`CCC1CCCC1` [ethylcyclopentane]: the flash point in series [1] was -4 °C.

In the case of `CCCCCCCN` [heptan-1-amine], the flash point came to 44.00 °C.

Consider `OCCCCCCO` [hexane-1,6-diol], for which the flash point is 147.00 °C.

For the molecule `Cc1cccc(C(C)C)c1` [m-isopropyltoluene], in series [1], the flash point came out at 50 °C.

In the case of `CCCCC1CCCCC1` [n-butylcyclohexane], the flash point in series [1] was determined as 48 °C; in series [2] it was 41 °C.

In series [1], `CCCCCCCCCc1ccccc1` [n-nonylbenzene] had a flash point of 117 °C.

On to `CCCC1CCCCC1` [n-propylcyclohexane], for which the figures for the flash point in series [1] and in series [2] were 31 °C and 35 °C, respectively.

As for `C[C@H]1CC[C@H](C)CC1` [trans-1,4-dimethylcyclohexane], the flash point in series [1] is 6 °C.

Turning to `C/C=C/CCCC` [trans-2-heptene], the flash point in series [1] is -6 °C.

In series [1], `C/C=C/CCCCC` [trans-2-octene] yielded a flash point of 14 °C.

Turning to `C/C=C/CC` [trans-2-pentene], the flash point in series [1] was -45 °C.

For the molecule `CC/C=C/CCC` [trans-3-heptene], the flash point in series [1] was -6 °C.

On to `CC/C=C/CCCC` [trans-3-octene], for which, in series [1], the flash point stood at 9 °C.

For the molecule `C/C=C/C(C)C` [trans-4-methyl-2-pentene], in series [1], the flash point was -34 °C.

Regarding `CCC/C=C/CCC` [trans-4-octene], the flash point in series [1] worked out at 8 °C.

`C1CC[C@H]2CCCC[C@@H]2C1` [trans-decalin] returned a flash point in series [1] of 52 °C.

`C=CC1CCCCC1` [vinylcyclohexane] had a flash point in series [1] of 21 °C.
